Experimental data published in patent US11912693B2, “Compounds for modulating S1P1 activity and methods of using the same” (TREVENA, INC., priority 2017, dated 2024).

What was measured:
[1] = molecular target: T1, human sphingosine-1-phosphate receptor 1 (S1P1) (Homo sapiens (Human), UniProt P21453); experiment: Inhibition of cAMP production (HTRF cAMP HiRange), S1P1 CHO-K1 cells; format: cell-based; settings: for Emax: CHO-K1, efficacy (SPAN) normalized to fingolimod, read-out: hS1P1 cAMP SPAN
Outline: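 CHO-K1 cells stably co-expressing human S1P1 (C-terminal Prolink tag) and EA-β-arrestin2 were grown in AssayComplete Media 6 at 37° C. and 5% CO2, plated, and incubated overnight. Agonist-driven inhibition of intracellular cAMP was read by TR-FRET with the HTRF cAMP HiRange kit on a PheraStar reader. Potency is pEC50, and efficacy (SPAN) is normalized to fingolimod.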
Target sequence in this assay (P21453 whole entry, looked up): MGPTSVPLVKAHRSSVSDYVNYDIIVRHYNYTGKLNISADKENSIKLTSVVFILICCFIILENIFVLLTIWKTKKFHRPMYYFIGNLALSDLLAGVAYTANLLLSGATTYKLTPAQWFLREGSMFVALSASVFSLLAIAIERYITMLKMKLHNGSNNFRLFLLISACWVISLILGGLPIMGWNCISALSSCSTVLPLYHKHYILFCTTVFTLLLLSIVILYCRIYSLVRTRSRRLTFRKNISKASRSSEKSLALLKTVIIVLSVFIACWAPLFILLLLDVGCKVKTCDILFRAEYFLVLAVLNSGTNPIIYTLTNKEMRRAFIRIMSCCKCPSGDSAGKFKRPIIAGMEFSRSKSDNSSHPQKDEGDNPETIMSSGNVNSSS

[2] = molecular target: T1, human sphingosine-1-phosphate receptor 1 (S1P1); experiment: β-Arrestin2 recruitment assay (PathHunter), S1P1 CHO-K1 cells; format: cell-based; settings: for Emax: CHO-K1, efficacy (SPAN) normalized to fingolimod, read-out: hS1P1 B-arrestin2 SPAN
Outline: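 Enzyme-fragment complementation read-out: agonist-driven β-arrestin2 binding to ProLink-tagged human S1P1 in stable CHO-K1 cells restores β-galactosidase, measured 1 h at room temperature after a 60 min 37° C. compound incubation. Potency as pEC50, efficacy relative to fingolimod (SPAN).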
Target sequence in this assay (P21453 whole entry, looked up): as above
Target sequence in this assay (P32121 whole entry partner, looked up): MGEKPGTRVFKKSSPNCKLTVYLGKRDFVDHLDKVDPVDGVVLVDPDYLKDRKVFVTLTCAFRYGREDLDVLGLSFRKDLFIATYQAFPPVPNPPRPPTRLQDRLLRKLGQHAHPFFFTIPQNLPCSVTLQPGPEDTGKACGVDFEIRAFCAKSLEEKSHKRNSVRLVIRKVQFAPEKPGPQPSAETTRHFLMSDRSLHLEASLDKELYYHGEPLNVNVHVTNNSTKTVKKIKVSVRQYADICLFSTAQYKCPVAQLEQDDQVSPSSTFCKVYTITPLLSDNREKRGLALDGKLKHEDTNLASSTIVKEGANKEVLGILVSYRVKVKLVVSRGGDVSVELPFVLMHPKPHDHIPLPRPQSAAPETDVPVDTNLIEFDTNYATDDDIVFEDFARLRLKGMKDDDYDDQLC

[3] = tested on: paclitaxel induced peripheral neuropathy; experiment: Reversal of allodynia induced by paclitaxel in mice (s.c. or p.o., von Frey frequency method); format: in vivo, c57bl/6 mice; settings: Mus musculus; for inhibition in vivo at 1 mg/kg: sc, 0.5 h, 1 mg/kg s.c., tested 30 min after dosing, read-out: Screen @ 1 mg/kg sc (% MPE); for inhibition in vivo at 3 mg/kg: po, 1 h, 3 mg/kg p.o., tested 60 min after dosing, read-out: Screen @ 3 mg/kg po (% MPE)
Outline: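 Neuropathy was induced in mice by paclitaxel (6 mg/kg i.p., days 1, 3, 5, 7) or oxaliplatin (4 mg/kg i.p., days 1-5), with re-testing about 14 days later. Compounds were given s.c. (tested at 30 min) or p.o. (tested at 60 min; paclitaxel only). A 0.4 g von Frey filament was applied ten times per paw, and % non-response was converted to % MPE.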

[4] = molecular target: human sphingosine-1-phosphate receptor 2 (S1P2) (Homo sapiens (Human), UniProt O95136); experiment: Inositol monophosphate production (IP-one TB kit), S1P2 CHO-K1 cells; format: cell-based; settings: for Emax: CHO-K1, efficacy normalized to CYM5520, read-out: hS1P2 IP-one SPAN; for hS1P2 IP-one pEC50: inositol monophosphate accumulation
Procedure: (§1) Stable clonal Chinese hamster ovary K1 (CHO-K1) cells co-expressing EA-β-arrestin2 and the human sphingosine-1-phosphate receptor 2 (NM_004230.3, S1P2), human sphingosine-1-phosphate receptor 3 (NM_005226, S1P3) and sphingosine-1-phosphate receptor 5 (NM_001166215.1, S1P5) with a C-terminal Prolink™ tag were purchased from DiscoverX corporation (S1P2: Cat #93-0256C2, S1P3: Cat #93-0217C2, S1P5: Cat #93-0583C2).
(§2) Cell lines were cultured in AssayComplete™ Media 6 (DiscoverX Corporation, Cat #: 920018GF2) at 37° C. and 5% CO2 in a humidified CO2 and temperature-controlled incubator. To begin assay plating, cells were washed with dulbecco's phosphate buffered saline (CellGro, Cat #: 21-031-CV) and lifted from the culturing flask by incubation (37° C., 5 min) with CellStripper (Cellgro, Cat #: 25-056-CI). […] Plated cells were incubated overnight at 37° C. and 5% CO2 in a humidified CO2 and temperature-controlled incubator.
S1P2 Agonist-promoted G-protein responses were determined by measuring changes in intracellular inositol monophosphate using the IP-one TB kit (CisBio, Cat #: 62IPAPEJ) based on time-resolved fluorescence resonance energy transfer (TR-FRET) technology. AssayComplete™ Cell Plating 2 Reagent was removed and replaced with 1× IP-one stimulation buffer (as per manufacturer's instructions) along with test or control compounds at the desired concentrations. Following a 60-minute incubation at 37° C. and 5% CO2 in a humidified CO2 and temperature-controlled incubator, the components of the IP-one TB kit were added as per the manufacturer's instructions. After an hour incubation at room temperature, plates were analyzed by a BMG PheraStar microplate reader.
(§3) The tables below include the efficacy of the compound as compared to a positive control, referred to as “SPAN”. These values are normalized to fingolimod, a known agonist of the sphingosine-1-phosphate 3 and 5 receptor or CYM5520, a known agonist of the sphingosine-1-phosphate 2 receptor. The tables also include potency values (pEC50) for modulating discrete receptor-mediated activities (inhibition of cAMP production or inositol monophosphate accumulation).

[5] = molecular target: human sphingosine-1-phosphate receptor 3 (S1P3) (Homo sapiens (Human), UniProt Q99500); experiment: Inhibition of cAMP production (HTRF), S1P3 CHO-K1 cells; format: cell-based; settings: for Emax: CHO-K1, efficacy normalized to fingolimod, read-out: hS1P3 cAMP SPAN; for hS1P3 cAMP pEC50: inhibition of cAMP production
Procedure: as §1, §2
(§4) S1P3 and S1P5 Agonist-promoted G-protein responses were determined by measuring changes in intracellular cAMP using the HTRF® cAMP HiRange kit (CisBio, Cat #: 62AM6PEJ) based on time-resolved fluorescence resonance energy transfer (TR-FRET) technology. […] Following a 30-minute room temperature incubation the components of the cAMP HiRange kit were added as per the manufacturer's instructions. After an hour incubation at room temperature, plates were analyzed by a BMG PheraStar microplate reader.
as §3

[6] = molecular target: sphingosine-1-phosphate receptor 5 (S1P5) (Homo sapiens (Human), UniProt Q9H228); experiment: Inhibition of cAMP production (HTRF), S1P5 CHO-K1 cells; format: cell-based; settings: for Emax: CHO-K1, efficacy normalized to fingolimod, read-out: hS1P5 cAMP SPAN; for hS1P5 cAMP pEC50: inhibition of cAMP production
Procedure: as §1, §2, §4, §3

[7] = inhibition of cAMP production, S1P1 CHO-K1 cells
[8] = β-arrestin2 recruitment, S1P1 CHO-K1 cells

Sequence of human sphingosine-1-phosphate receptor 3 (S1P3) (Q99500 whole entry): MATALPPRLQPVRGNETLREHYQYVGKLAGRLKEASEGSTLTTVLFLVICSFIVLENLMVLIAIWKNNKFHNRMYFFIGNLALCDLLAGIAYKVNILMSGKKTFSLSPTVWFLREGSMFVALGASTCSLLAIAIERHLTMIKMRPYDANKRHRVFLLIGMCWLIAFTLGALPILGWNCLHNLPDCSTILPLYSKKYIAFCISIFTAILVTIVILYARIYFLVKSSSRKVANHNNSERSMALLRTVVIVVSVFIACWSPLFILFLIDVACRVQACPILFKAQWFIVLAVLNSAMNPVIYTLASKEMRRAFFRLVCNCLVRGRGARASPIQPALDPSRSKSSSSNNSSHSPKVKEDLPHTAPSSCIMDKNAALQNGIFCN
Sequence of human sphingosine-1-phosphate receptor 2 (S1P2) (O95136 whole entry): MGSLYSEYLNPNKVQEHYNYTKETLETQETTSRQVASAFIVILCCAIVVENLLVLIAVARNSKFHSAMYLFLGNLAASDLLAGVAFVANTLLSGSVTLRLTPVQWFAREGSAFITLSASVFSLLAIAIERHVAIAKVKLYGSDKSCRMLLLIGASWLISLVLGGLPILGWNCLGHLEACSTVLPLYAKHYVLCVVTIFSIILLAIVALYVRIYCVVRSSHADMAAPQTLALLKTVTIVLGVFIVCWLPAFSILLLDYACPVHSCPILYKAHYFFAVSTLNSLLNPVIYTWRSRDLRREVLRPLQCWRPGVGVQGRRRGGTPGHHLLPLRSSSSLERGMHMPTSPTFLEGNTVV
Sequence of sphingosine-1-phosphate receptor 5 (S1P5) (Q9H228 whole entry): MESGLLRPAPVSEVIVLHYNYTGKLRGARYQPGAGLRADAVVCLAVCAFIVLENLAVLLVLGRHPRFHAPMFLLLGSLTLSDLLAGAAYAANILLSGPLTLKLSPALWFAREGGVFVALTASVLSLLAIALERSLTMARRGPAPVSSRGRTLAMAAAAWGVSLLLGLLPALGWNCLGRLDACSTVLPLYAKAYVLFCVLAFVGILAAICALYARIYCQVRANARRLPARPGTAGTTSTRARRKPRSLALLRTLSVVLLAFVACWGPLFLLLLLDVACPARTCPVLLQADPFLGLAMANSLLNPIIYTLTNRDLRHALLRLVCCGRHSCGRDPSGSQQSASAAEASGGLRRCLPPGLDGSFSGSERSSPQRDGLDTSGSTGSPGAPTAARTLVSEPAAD

SMILES	Emax [1] [%]	hS1P1 cAMP pEC50 [1, 7]	Emax [2] [%]	hS1P1 B-arrestin2 pEC50 [2, 8]	inhibition in vivo at 1 mg/kg [3] [%]	Emax [4] [%]	hS1P2 IP-one pEC50 [4]	Emax [5] [%]	hS1P3 cAMP pEC50 [5]	Emax [6] [%]	hS1P5 cAMP pEC50 [6]	EC50 ([1]; inhibition of cAMP production, S1P1 CHO-K1 cells, read-out: hS1P1 cAMP pEC50 (converted)) [µM]	EC50 ([2]; β-arrestin2 recruitment, S1P1 CHO-K1 cells, read-out: hS1P1 B-arrestin2 pEC50 (converted)) [µM]	inhibition in vivo at 3 mg/kg [3] [%]
C=CCNc1ccc(-c2nc(-c3ccc4[nH]cnc4c3)no2)cc1C#N [Compound 177, 5-(3-(1H-benzo[d]imidazol-5-yl)-1,2,4-oxadiazol-5-yl)-2-(allylamino)benzonitrile]	> 75	>6.5	> 75	>5	> 50	< 50	<5.0	> 50	>5.0	> 50	>5.0	–	–	–
C=CCNc1ccc(-c2nc(-c3ccc4sc(N)nc4c3)no2)cc1C#N [Compound 267, 2-(allylamino)-5-(3-(2-aminobenzo[d]thiazol-5-yl)-1,2,4-oxadiazol-5-yl)benzonitrile]	–	>6.5	–	>5	> 50	–	<5.0	–	<5.0	–	<5.0	–	–	–
CCC1(CC)CC(=O)c2cc(-c3nc(-c4ccccc4Cl)no3)ccc2O1 [Compound 221, 6-(3-(2-chlorophenyl)-1,2,4-oxadiazol-5-yl)-2,2-diethylchroman-4-one]	–	>6.5	–	>5	< 50	–	<5.0	–	>5.0	–	>5.0	–	–	–
C=CCNc1ccc(-c2nc(-c3cn[nH]c3)no2)cc1C#N [Compound 252, 5-(3-(1H-pyrazol-4-yl)-1,2,4-oxadiazol-5-yl)-2-(allylamino)benzonitrile]	–	–	–	–	< 50	–	>5.0	–	>5.0	–	>5.0	< 0.316	< 10	–
CCC1(CC)CC(=O)c2cc(-c3nc(-c4ccc(NS(C)(=O)=O)cc4)no3)ccc2O1 [Compound 262, N-(4-(5-(2,2-diethyl-4-oxochroman-6-yl)-1,2,4-oxadiazol-3-yl)phenyl)methanesulfonamide]	> 75	>6.5	> 75	>5	> 50	> 50	<5.0	< 50	<5.0	< 50	<5.0	–	–	> 50
C=CCNc1ccc(-c2nc(-c3ccc(NS(C)(=O)=O)cc3)no2)cc1C#N [Compound 149, N-(4-(5-(4-(allylamino)-3-cyanophenyl)-1,2,4-oxadiazol-3-yl)phenyl)methanesulfonamide]	> 75	>6.5	> 75	>5	< 50	< 50	<5.0	> 50	>5.0	> 50	>5.0	–	–	–
CCC1(CC)CC(=O)c2cc(-c3nc(-c4ccc(C(=O)NC)cc4)no3)ccc2O1 [Compound 185, 4-(5-(2,2-diethyl-4-oxochroman-6-yl)-1,2,4-oxadiazol-3-yl)-N-methylbenzamide]	> 75	>6.5	> 75	>5	> 50	< 50	<5.0	< 50	<5.0	> 50	<5.0	–	–	–
C=CCNc1ccc(-c2nc(-c3ccc4[nH]ncc4c3)no2)cc1C#N [Compound 141, 5-(3-(1H-indazol-5-yl)-1,2,4-oxadiazol-5-yl)-2-(allylamino)benzonitrile]	> 75	>6.5	> 75	>5	–	< 50	<5.0	> 50	>5.0	> 50	>5.0	–	–	–
CCC1(CC)CC(=O)c2cc(-c3nc(-c4ccnc(O)c4)no3)ccc2O1 [Compound 263, 2,2-diethyl-6-[3-(2-hydroxy-4-pyridyl)-1,2,4-oxadiazol-5-yl]chroman-4-one]	–	>6.5	–	>5	> 50	–	<5.0	–	<5.0	–	<5.0	–	–	> 50
COc1ccccc1-c1coc(-c2ccc3c(c2)nnn3C(C)C)n1 [Compound 277, 5-[4-(2-methoxyphenyl)-1,3-oxazol-2-yl]-1-(propan-2-yl)-1H-1,2,3-benzotriazole]	> 75	>6.5	> 75	>5	> 50	> 50	<5.0	< 50	<5.0	< 50	<5.0	–	–	–
CC(C)n1nnc2cc(-c3nc4c(o3)Cc3ccccc3-4)ccc21 [Compound 219, 5-{8H-indeno[1,2-d][1,3]oxazol-2-yl}-1-(propan-2-yl)-1H-1,2,3-benzotriazole]	–	>6.5	–	>5	–	–	>5.0	–	<5.0	–	<5.0	–	–	–
COc1ccccc1-c1nc(-c2ccc3c(ccn3C(C)C)c2)no1 [Compound 398, 3-(1-isopropyl-1H-indol-5-yl)-5-(2-methoxyphenyl)-1,2,4-oxadiazole]	–	>6.5	–	>5	–	–	<5.0	–	<5.0	–	<5.0	–	–	–
CC(C)Nc1ccc(-c2nc(-c3ccc4c(c3)CCC(=O)N4)no2)cc1C#N [Compound 259, 2-(isopropylamino)-5-(3-(2-oxo-1,2,3,4-tetrahydroquinolin-6-yl)-1,2,4-oxadiazol-5-yl)benzonitrile]	> 75	>6.5	< 75	>5	< 50	< 50	<5.0	< 50	<5.0	< 50	<5.0	–	–	–
